# In publication PMC9150076 (Journal of Medicinal Chemistry, 2022):
# Like-named read-outs stand apart in the source and are kept apart here.
# Columns and labels:
# [1] = test system: PDAC3 primary cell culture; experiment: Growth inhibition, SRB assay, PDAC3; assay type: cell-based, human; conditions: Homo sapiens, PDAC-3; PDAC3, 72 h, SRB; read-out: IC50 antiproliferative activity
# ABHD12 = ABHD12 (Mus musculus, UniProt Q99LR1)
# [2] = test system: immortalized ductal normal cells HPNE; experiment: Growth inhibition, SRB assay, HPNE normal cells; assay type: cell-based, human; conditions: 72 h
# Bcl-2 = experiment: qRT-PCR gene expression, Bcl-2; assay type: cell-based; conditions: 5× IC50, 24 h, compared to untreated cells
# Description: (§1) To elucidate the previous data on apoptosis and migration and the mechanism of interaction, further studies focused on several potential cellular determinants and effectors of drug activities, such as the anti-apoptotic factor Bcl-2, the key matrix metalloproteinase 9 (MMP9), which promotes cell migration, and the main gemcitabine transporter, the human equilibrative nucleoside transporter 1 (hENT1).
# (§2) Real-time quantitative reverse transcription PCR (qRT-PCR) was performed to evaluate the gene expression of MMP9, BCL-2, BCL-x, and hENT1, using β-actin, and GAPDH as housekeeping genes. […] Total RNA was extracted using the TRIzol Reagent (15596–026, ThermoFisher Scientific, Waltham, MA) according to the manufacturer’s protocol. One microgram of RNA was reverse transcribed using first-strand cDNA synthesis (First Strand cDNA Synthesis Kit; ThermoFisher #K1612) on a Bio-Rad machine C100 Thermal Cycler. Real-time qPCR quantification was performed using specific TaqMan detection probes and primers (TaqMan Universal PCR Master Mix #4304437; Thermo Fisher Scientific, USA) with the ABIPRISM-7500 instrument (Applied Biosystems, Foster City, CA), as described previously.[60] Data obtained were analyzed according to the 2^–ΔΔCt method.
# [3] = Stability test in human plasma; assay type: in vitro ADME; conditions: 37 °C
# Description: The incubation mixture (total volume of […]) was constituted by the following components: pooled human plasma (1.5 mL, 55.7 mg protein/mL),[65] HEPES buffer (1.4 mL, 25 mM, 140 mM NaCl pH 7.4), and 100 μL of each compound in DMSO (3.0 mM). The solution was mixed in a test tube that was incubated at 37 °C. At set time points (0.0, 0.25, 0.50, 1.0, 2.0, 4.0, 8.0, and 24.0 h), samples of 100 μL were taken, mixed with 400 μL of cold acetonitrile, and centrifuged at 5000 rpm for 15 min.[66] The supernatant was removed and analyzed by UV/LC–MS. For each compound, the determination was performed in three independent experiments.
# MMP9 = experiment: qRT-PCR gene expression, MMP9; assay type: cell-based; conditions: 5× IC50, 24 h, compared to untreated cells
# Description: as §1, §2
# [4] = Stability test in polar solvents; assay type: physicochemical
# Description: Each compound was dissolved at RT in MeOH or PBS (25 mM, pH 7.4) up to a final concentration of 500 μM. Aliquot samples (20 μL) were taken at fixed time points (0.0, 4.0, 8.0, and 24.0 h) and were analyzed by UV/LC–MS. For each compound, the determination was performed in three independent experiments.
# [5] = test system: SUIT-2 immortalized cell line; experiment: Growth inhibition, SRB assay, SUIT-2; assay type: cell-based; conditions: Homo sapiens, SUIT-2, 72 h, read-out: IC50 antiproliferative activity
# PDAC3 cells [6] = experiment: Wound-healing/migration assay, PDAC3; assay type: cell-based, human; conditions: PDAC3, 20 h, drug at 5× IC50; control 59 ± 8%
# [7] = test system: active caspase-3 in PDAC2 cells; experiment: Active caspase-3 immunoassay, PDAC2; assay type: cell-based, human; conditions: untreated 0.35
# Water solubility = assay type: physicochemical; conditions: distilled water, room temperature
# Description: 6.9 software. Chromatographic separation was obtained using a Kinetex C18 column (150 × 4.6 mm) with a 5 μm particle size and gradient elution with a binary solution; (eluent A: ACN, eluent B: water, both eluents were acidified with formic acid 0.1% v/v). The analysis started with 5% of A (from t = 0 to t = 1 min), then A was increased to 95% (from t = 1 to t = 10 min), then kept at 95% (from t = 10 to t = 19 min), and finally returned to 5% of eluent A in 1.0 min. The flow rate was 0.6 mL/min, and injection volumes were 10 μL. The instrument operated in positive mode, and parameters were detector 1450 V, drying gas pressure 35.0 psi, desolvation temperature 300.0 °C, nebulizing gas 45.0 psi, needle 5550 V and shield 350 V. Nitrogen was used as a nebulizer gas and drying gas. Collision-induced dissociation was performed using argon as the collision gas at a pressure of 1.8 mTorr in the collision cell. The transitions as well as the capillary voltage and the collision energy used are appropriated for each tested compound. Quantification of the single compound was made by comparison with appropriate calibration curves realized with standard solutions in methanol. LC analyses of PAMPA, metabolic stability, and stability tests (in MeOH, PBS, human plasma) were performed by UV/LC–MS with an Agilent 1100 LC/MSD VL system ((G1946C) Agilent Technologies, Palo Alto, CA) using a Phenomenex Kinetex C18–100 Å (150 × 4.6 mm, 5 μm particle size) at room temperature. Analyses were carried out with the same chromatographic conditions reported above.
# Each sample was mixed at room temperature in a shaker water bath for 24 h.[62] The resulting suspension was filtered through a 0.45 μm nylon filter (Acrodisc), and the solubilized compound was quantified in triplicate using the LC–MS/MS method reported above, by comparison with the appropriate calibration curve that was obtained from samples of the compound dissolved in methanol at different concentrations.
# hENT1 = experiment: qRT-PCR gene expression, hENT1; assay type: cell-based; conditions: 5× IC50, 24 h, compared to untreated cells
# Description: as §1, §2
# [8] = test system: active caspase-3 in PDAC3 cells; experiment: Active caspase-3 immunoassay, PDAC3; assay type: cell-based, human; conditions: PDAC3, compared to untreated cells
# hCB2 = biological target: T1, hCB2 (Homo sapiens, UniProt P34972); experiment: CB2 binding assay, [3H]CP55,940 displacement
# T1 construct: expressed in transfected cells
# T1 sequence (P34972 whole entry): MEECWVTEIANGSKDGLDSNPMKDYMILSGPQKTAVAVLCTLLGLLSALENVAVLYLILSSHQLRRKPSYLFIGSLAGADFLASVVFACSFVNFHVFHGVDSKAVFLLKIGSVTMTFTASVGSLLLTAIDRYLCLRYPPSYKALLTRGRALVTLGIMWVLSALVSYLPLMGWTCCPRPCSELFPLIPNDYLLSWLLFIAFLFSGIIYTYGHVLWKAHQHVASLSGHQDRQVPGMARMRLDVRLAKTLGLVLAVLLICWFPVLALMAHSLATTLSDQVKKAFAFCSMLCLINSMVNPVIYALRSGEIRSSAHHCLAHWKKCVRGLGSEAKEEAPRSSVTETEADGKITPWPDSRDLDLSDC
# [9] = test system: PDAC2 primary cell culture; experiment: Growth inhibition, SRB assay, PDAC2; assay type: cell-based; conditions: Homo sapiens, PDAC-2, PDAC2, 72 h, read-out: IC50 antiproliferative activity
# PDAC3 cells [10] = experiment: Apoptosis assay, Annexin-V staining, PDAC3; assay type: cell-based, human; conditions: PDAC3, drug at IC50, 72 h, compared to untreated cells
# Sequence of ABHD12 (Q99LR1 whole entry): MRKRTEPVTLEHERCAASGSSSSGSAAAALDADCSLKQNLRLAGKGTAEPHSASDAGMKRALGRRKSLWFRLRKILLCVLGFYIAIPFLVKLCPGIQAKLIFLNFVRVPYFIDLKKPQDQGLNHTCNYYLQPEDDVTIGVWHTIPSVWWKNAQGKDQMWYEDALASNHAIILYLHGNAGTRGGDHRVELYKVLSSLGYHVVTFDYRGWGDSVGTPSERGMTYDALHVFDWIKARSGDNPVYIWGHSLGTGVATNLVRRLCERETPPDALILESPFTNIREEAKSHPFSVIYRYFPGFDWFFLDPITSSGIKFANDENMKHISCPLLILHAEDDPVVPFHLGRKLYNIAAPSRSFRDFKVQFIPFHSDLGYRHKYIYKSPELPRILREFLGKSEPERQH
compound,measurement,setting,value
"O=C(c1cc(O)ccc1F)N1CCC(Cc2cccc(Oc3cc(C(F)(F)F)ccn3)c2)CC1 [Compound 13, (2-Fluoro-5-hydroxyphenyl)(4-(3-((4-(trifluoromethyl)pyridin-2-yl)oxy)benzyl)piperidin-1-yl)methanone]",IC50,[1],7.25 µM
same,TAMRA-FP labelling of ABHD12 band (ABPP),ABHD12,without affecting
same,IC50 antiproliferative activity,[2],not sensitive
same,IC50,"[2]; Homo sapiens, read-out: IC50 antiproliferative activity",> 20 µM
same,Bcl-2 gene expression,Bcl-2,slight reduction
same,stability human plasma,[3],>24 h
same,MMP9 gene expression,MMP9,significant reduction
same,stability MeOH,"[4]; MeOH, RT",>24 h
same,stability PBS pH 7.4,"[4]; PBS pH 7.4, RT",>24 h
same,IC50,[5],11.2 µM
same,scratch area closed,PDAC3 cells [6],38 ± 6%
same,levels of active caspase-3,[7],1.12 ng/mL
same,solubility at 24 h,Water solubility; read-out: water solubility,< 1 ng/mL
same,solubility at 24 h,Water solubility; read-out: water solubility (logS),< 2.11 nM
same,hENT1 gene expression,hENT1,increase
same,levels of active caspase-3,[8],significantly higher levels of active caspase-3
same,IC50,hCB2,> 10 µM
same,IC50,[9],12.6 µM
same,induction of apoptosis,PDAC3 cells [10],strongly enhanced apoptosis induction
